Literature values, collected in patent US20230158004A1, “ENTERIC-COATED PREPARATION COMPRISING PIRFENIDONE HAVING IMPROVED SAFETY AND STABILITY, AND METHOD FOR PREPARING SAME” (YUNGJIN PHARM. CO., LTD., priority 2020, published 2023).

Settings: healthy adults and patients with idiopathic pulmonary fibrosis, total 1,650 people

anorexia: 11.4%
diarrhea: 18.8%
headache: 10.1%
indigestion: 16.1%
nausea: 32.4%
photosensitivity: 9.3%
rash: 26.2%
SMILES: Cc1ccc(=O)n(-c2ccccc2)c1 [pirfenidone, 5-methyl-1-phenyl-2-(1H)-pyridone]
